# Experimental data as given in ChEMBL document CHEMBL1201862, “PubChem BioAssay data set” (2004).
#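 Tested at 5 concentrations; 48 h exposure; 96-well plates; endpoints linearly interpolated, else capped at highest concentration. The concentration for 50% growth inhibition is given as GI50.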 Calls of active or inactive are those of the source. Cut-off read from the data, not from the text of the source: active = GI50 up to about 1.1 µM and inactive = higher.
# Key:
# Assay in all cases: inhibition of tumour cell growth, NCI panel, 48 h
# OVCAR-8 = tested on: OVCAR-8
# UACC-62 = tested on: UACC-62
# CCRF-CEM = tested on: CCRF-CEM
# NCI-H23 = tested on: NCI-H23
# SF-268 = tested on: SF-268
# SN12C = tested on: SN12C
# TK-10 = tested on: TK-10
# RXF 393 = tested on: RXF 393
# NCI/ADR-RES = tested on: NCI/ADR-RES
# HT-29 = tested on: HT-29
# MDA-MB-231 = tested on: MDA-MB-231
# NCI-H226 = tested on: NCI-H226
# LOX IMVI = tested on: LOX IMVI
# T47D = tested on: T47D
# MOLT-4 = tested on: MOLT-4
# SF-295 = tested on: SF-295
# SNB-75 = tested on: SNB-75
# K562 = tested on: K562
# SR = tested on: SR
# PC-3 = tested on: PC-3
Structure (SMILES),GI50 (OVCAR-8),GI50 (UACC-62),GI50 (CCRF-CEM),GI50 (NCI-H23),GI50 (SF-268),GI50 (SN12C),GI50 (TK-10),GI50 (RXF 393),GI50 (NCI/ADR-RES),GI50 (HT-29),GI50 (MDA-MB-231),GI50 (NCI-H226),GI50 (LOX IMVI),GI50 (T47D),GI50 (MOLT-4),GI50 (SF-295),GI50 (SNB-75),GI50 (K562),GI50 (SR),GI50 (PC-3)
CCCCCCCCCCCCCCCCCCNc1ccn(C2OC(CO)C(O)C2O)c(=O)n1 (centres undefined),> 100 µM (inactive),> 100 µM (inactive),5.37 µM (inactive),> 100 µM (inactive),> 100 µM (inactive),> 100 µM (inactive),> 100 µM (inactive),7.66 µM (inactive),> 100 µM (inactive),> 95.5 µM (inactive),> 100 µM (inactive),> 100 µM (inactive),> 62.8 µM (inactive),> 40.7 µM (inactive),4.58 µM (inactive),> 100 µM (inactive),29.9 µM (inactive),> 73.8 µM (inactive),23.7 µM (inactive),2.45 µM (inactive)
S=C=NCc1ccccc1 [BENZYL ISOTHIOCYANATE],2.62 µM (inactive),3.32 µM (inactive),0.454 µM (active),3.81 µM (inactive),3.35 µM (inactive),3.7 µM (inactive),4.37 µM (inactive),1.62 µM (inactive),3.43 µM (inactive),2.47 µM (inactive),1.8 µM (inactive),10.1 µM (inactive),0.796 µM (active),10.4 µM (inactive),1.31 µM (inactive),4.82 µM (inactive),4.27 µM (inactive),0.697 µM (active),0.794 µM (active),4.1 µM (inactive)
CCCCCC(=O)Nc1[nH]nnc1C#N,> 100 µM (inactive),> 100 µM (inactive),> 100 µM (inactive),> 100 µM (inactive),> 100 µM (inactive),> 100 µM (inactive),> 100 µM (inactive),> 100 µM (inactive),> 100 µM (inactive),> 100 µM (inactive),> 100 µM (inactive),> 100 µM (inactive),> 100 µM (inactive),> 100 µM (inactive),> 100 µM (inactive),> 100 µM (inactive),> 100 µM (inactive),> 100 µM (inactive),> 100 µM (inactive),> 100 µM (inactive)
Cc1cc(C)c(-n2c(C)c(C)c(C#N)c2N)c(C)c1,34.6 µM (inactive),,15.3 µM (inactive),39 µM (inactive),38.6 µM (inactive),27.2 µM (inactive),32.4 µM (inactive),22.1 µM (inactive),32.3 µM (inactive),30.5 µM (inactive),33.6 µM (inactive),25 µM (inactive),19.2 µM (inactive),26.3 µM (inactive),15.6 µM (inactive),36.4 µM (inactive),31.9 µM (inactive),11 µM (inactive),11 µM (inactive),25.8 µM (inactive)
C#CCCCC(=O)N(C(=O)C[S+]([O-])CC)c1ccccc1 (centres undefined),> 100 µM (inactive),> 100 µM (inactive),> 100 µM (inactive),> 100 µM (inactive),> 100 µM (inactive),> 100 µM (inactive),> 100 µM (inactive),> 100 µM (inactive),> 100 µM (inactive),> 100 µM (inactive),> 100 µM (inactive),> 100 µM (inactive),> 100 µM (inactive),> 100 µM (inactive),> 100 µM (inactive),> 100 µM (inactive),> 100 µM (inactive),> 100 µM (inactive),> 100 µM (inactive),> 100 µM (inactive)
O=c1c2ccccc2oc2nc3n(c(=O)c12)CCCS3,> 100 µM (inactive),> 100 µM (inactive),> 100 µM (inactive),> 100 µM (inactive),> 100 µM (inactive),> 100 µM (inactive),> 100 µM (inactive),> 100 µM (inactive),> 100 µM (inactive),,> 100 µM (inactive),> 100 µM (inactive),> 100 µM (inactive),> 100 µM (inactive),> 100 µM (inactive),> 100 µM (inactive),63.4 µM (inactive),> 100 µM (inactive),> 100 µM (inactive),> 100 µM (inactive)
NC(=O)c1nnsc1N/N=C/c1ccc([N+](=O)[O-])cc1,> 100 µM (inactive),> 100 µM (inactive),> 100 µM (inactive),> 100 µM (inactive),> 100 µM (inactive),> 100 µM (inactive),,> 100 µM (inactive),> 100 µM (inactive),> 100 µM (inactive),> 100 µM (inactive),> 100 µM (inactive),> 100 µM (inactive),> 100 µM (inactive),> 100 µM (inactive),> 100 µM (inactive),> 100 µM (inactive),> 100 µM (inactive),33.9 µM (inactive),> 100 µM (inactive)
COC(=O)/C=C1/OC(c2ccc(C)cc2C)=CC1=O,10 µM (inactive),10.6 µM (inactive),3.42 µM (inactive),24.5 µM (inactive),17.8 µM (inactive),,17.5 µM (inactive),12.1 µM (inactive),19.5 µM (inactive),5.18 µM (inactive),14.3 µM (inactive),19.5 µM (inactive),6.17 µM (inactive),20.1 µM (inactive),3.55 µM (inactive),,12.9 µM (inactive),2.81 µM (inactive),3.4 µM (inactive),17.8 µM (inactive)
Cn1c(-c2ccc(C=O)o2)ccc1-c1ccc(C=O)o1,30.4 µM (inactive),74.1 µM (inactive),> 100 µM (inactive),45.7 µM (inactive),,37.6 µM (inactive),> 100 µM (inactive),> 100 µM (inactive),35.7 µM (inactive),36.1 µM (inactive),38 µM (inactive),76.4 µM (inactive),31.7 µM (inactive),26.1 µM (inactive),24.8 µM (inactive),58.7 µM (inactive),39.5 µM (inactive),35.5 µM (inactive),30.9 µM (inactive),39.4 µM (inactive)
COC(=O)/C=C1/SC(/C(=C(/[O-])OC)[n+]2ccc3ccccc3c2)=NC1=O,> 100 µM (inactive),> 100 µM (inactive),> 100 µM (inactive),> 100 µM (inactive),> 100 µM (inactive),> 100 µM (inactive),,> 100 µM (inactive),> 100 µM (inactive),> 100 µM (inactive),21.9 µM (inactive),> 100 µM (inactive),> 100 µM (inactive),> 100 µM (inactive),> 100 µM (inactive),> 100 µM (inactive),90.2 µM (inactive),> 100 µM (inactive),63 µM (inactive),> 100 µM (inactive)
C/C(Sc1ccccc1)=C1/CCCN(Cc2ccccc2)C1,30 µM (inactive),19.9 µM (inactive),20.2 µM (inactive),23.9 µM (inactive),36.1 µM (inactive),,18.6 µM (inactive),16.6 µM (inactive),24.9 µM (inactive),35.6 µM (inactive),24.1 µM (inactive),12.9 µM (inactive),14.1 µM (inactive),13.3 µM (inactive),16.7 µM (inactive),17.4 µM (inactive),23.6 µM (inactive),18 µM (inactive),16.1 µM (inactive),21.9 µM (inactive)
COc1ccccc1N1CCN(CCCCNC(=O)c2ccc([N+](=O)[O-])o2)CC1,10.6 µM (inactive),5.93 µM (inactive),21.1 µM (inactive),5.79 µM (inactive),16.7 µM (inactive),3.27 µM (inactive),5.9 µM (inactive),8.57 µM (inactive),20 µM (inactive),2.74 µM (inactive),23.6 µM (inactive),11.7 µM (inactive),1.12 µM (active),14.3 µM (inactive),23.1 µM (inactive),11.6 µM (inactive),,12.4 µM (inactive),5.61 µM (inactive),13.6 µM (inactive)
C#CCOC(=O)c1ccc(OC(C)=O)cc1,> 100 µM (inactive),> 100 µM (inactive),> 100 µM (inactive),> 100 µM (inactive),> 100 µM (inactive),> 100 µM (inactive),> 100 µM (inactive),> 100 µM (inactive),> 100 µM (inactive),,> 100 µM (inactive),> 100 µM (inactive),> 100 µM (inactive),> 100 µM (inactive),> 100 µM (inactive),> 100 µM (inactive),> 100 µM (inactive),> 100 µM (inactive),> 100 µM (inactive),> 100 µM (inactive)
Nc1ccc(Cc2ccc(N)c(C(=O)O)c2)cc1C(=O)O,> 100 µM (inactive),> 100 µM (inactive),> 100 µM (inactive),> 100 µM (inactive),> 100 µM (inactive),> 100 µM (inactive),> 100 µM (inactive),> 100 µM (inactive),> 100 µM (inactive),> 100 µM (inactive),> 100 µM (inactive),> 100 µM (inactive),> 100 µM (inactive),> 100 µM (inactive),,> 100 µM (inactive),> 100 µM (inactive),> 100 µM (inactive),> 100 µM (inactive),> 100 µM (inactive)
